Test results from PubChem BioAssay AID1963984 (Molecular Pharmacology Branch, DTP, NCI, 2024).

Test system: 233499-124-R-J3-PDC spheroids with HUVEC/MSC, viability
Experiment: Anticancer human tumor 233499-124-R-J3-PDC patient-derived colon adenocarcinoma cell line growth inhibition [PI3K]
Settings: for IC50: curve of first compound; for viability, T/C: stronger effect = lower value; active means viability on the fitted dose curve at most 10% of control; inactive means the rest
How it was run: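 Stroma-containing spheroids: tumor line, pooled-donor HUVEC, hMSC. Treatments: targeted agents with PI3K inhibitors. Dosing: clinically relevant, half-log spacing, 10 microM ceiling without known Cmax. Read-out: cell viability.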

[1] = second compound 0.00316 µM, first compound 0.0316 µM
[2] = second compound 0.00316 µM, first compound 0.1 µM
[3] = second compound 0.00316 µM, first compound 0.316 µM
[4] = second compound 0.00316 µM, first compound 1 µM
[5] = second compound 0.00316 µM, first compound 3.16 µM
[6] = second compound 0.00316 µM, first compound 10 µM
[7] = second compound 0.01 µM, first compound 0.0316 µM
[8] = second compound 0.01 µM, first compound 0.1 µM
[9] = second compound 0.01 µM, first compound 0.316 µM
[10] = second compound 0.01 µM, first compound 1 µM
[11] = second compound 0.01 µM, first compound 3.16 µM
[12] = second compound 0.01 µM, first compound 10 µM
[13] = second compound 0.0316 µM, first compound 0.0316 µM
[14] = second compound 0.0316 µM, first compound 0.1 µM
[15] = second compound 0.0316 µM, first compound 0.316 µM
[16] = second compound 0.0316 µM, first compound 1 µM
[17] = second compound 0.0316 µM, first compound 3.16 µM
[18] = second compound 0.0316 µM, first compound 10 µM
[19] = second compound 0.1 µM, first compound 0.0316 µM
[20] = second compound 0.1 µM, first compound 0.1 µM
[21] = second compound 0.1 µM, first compound 0.316 µM
[22] = second compound 0.1 µM, first compound 1 µM
[23] = second compound 0.1 µM, first compound 3.16 µM
[24] = second compound 0.1 µM, first compound 10 µM
[25] = second compound 0.316 µM, first compound 0.0316 µM
[26] = second compound 0.316 µM, first compound 0.1 µM
[27] = second compound 0.316 µM, first compound 0.316 µM
[28] = second compound 0.316 µM, first compound 1 µM
[29] = second compound 0.316 µM, first compound 3.16 µM
[30] = second compound 0.316 µM, first compound 10 µM
[31] = second compound 1 µM, first compound 0.0316 µM
[32] = second compound 1 µM, first compound 0.1 µM
[33] = second compound 1 µM, first compound 0.316 µM
[34] = second compound 1 µM, first compound 1 µM
[35] = second compound 1 µM, first compound 3.16 µM
[36] = second compound 1 µM, first compound 10 µM
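Further: spheroids exposed to agents for seven days before readout.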
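Wherever viability, T/C is given: percent viability relative to DMSO vehicle control taken as 100%.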

C#Cc1c(F)ccc2cc(O)cc(-c3ncc4c(N5CC6CCC(C5)N6)nc(OCC56CCCN5CC(F)C6)nc4c3F)c12 (stereo unspecified) + COc1c(OCCCN2CCOCC2)ccc2c3n(c(=NC(=O)c4cnc(N)nc4)nc12)CCN3
active: viability, T/C [30] 4.16% | viability, T/C [31] 4.26% | viability, T/C [32] 9.48% | viability, T/C [33] 8.52% | viability, T/C [34] 3.87% | viability, T/C [35] 4.18% | viability, T/C [36] 2.6%
inactive: viability, T/C [1] 85.5% | viability, T/C [2] 100% | viability, T/C [3] 82.9% | viability, T/C [4] 95.1% | viability, T/C [5] 81% | viability, T/C [6] 67.2% | viability, T/C [7] 81.5% | viability, T/C [8] 95.2% | viability, T/C [9] 86.9% | viability, T/C [10] 91.6% | viability, T/C [11] 81.2% | viability, T/C [12] 80.8% | viability, T/C [13] 93.3% | viability, T/C [14] 91.3% | viability, T/C [15] 74.8% | viability, T/C [16] 92.7% | viability, T/C [17] 71.2% | viability, T/C [18] 68.7% | viability, T/C [19] 62.6% | viability, T/C [20] 86.5% | viability, T/C [21] 71.2% | viability, T/C [22] 63.5% | viability, T/C [23] 44.3% | viability, T/C [24] 29.7% | viability, T/C [25] 24.9% | viability, T/C [26] 26% | viability, T/C [27] 27.1% | viability, T/C [28] 11.7% | viability, T/C [29] 13.3%
> 10000 nM: IC50 (second compound 0.00316 µM) | IC50 (second compound 0.01 µM) | IC50 (second compound 0.0316 µM)
< 31.6 nM: IC50 (second compound 0.316 µM) | IC50 (second compound 1 µM)
2230 nM: IC50 (second compound 0.1 µM)

CC1(C)CCC(Nc2ncc(C(F)(F)F)c(-c3c[nH]c4c(P(C)(C)=O)c(C#N)ccc34)n2)CN1 (stereo unspecified) + COc1c(OCCCN2CCOCC2)ccc2c3n(c(=NC(=O)c4cnc(N)nc4)nc12)CCN3
inactive: viability, T/C [1] 64.2% | viability, T/C [2] 73.2% | viability, T/C [3] 42% | viability, T/C [4] 29.5% | viability, T/C [5] 29.5% | viability, T/C [7] 56.5% | viability, T/C [8] 67.6% | viability, T/C [9] 42.7% | viability, T/C [10] 15.7% | viability, T/C [11] 25.4% | viability, T/C [12] 5.25% | viability, T/C [13] 58.4% | viability, T/C [14] 43.3% | viability, T/C [15] 29.8% | viability, T/C [16] 29.7% | viability, T/C [17] 37.7% | viability, T/C [18] 2.18% | viability, T/C [19] 58.3% | viability, T/C [20] 53.9% | viability, T/C [21] 37.2% | viability, T/C [22] 26.1% | viability, T/C [23] 23.7% | viability, T/C [25] 33.5% | viability, T/C [26] 29.4% | viability, T/C [27] 24.3% | viability, T/C [28] 14.7% | viability, T/C [29] 16.3% | viability, T/C [31] 8.22%
205 nM: IC50 (second compound 0.01 µM)
102 nM: IC50 (second compound 0.1 µM)
56.7 nM: IC50 (second compound 0.0316 µM)
active: viability, T/C [6] 5.37% | viability, T/C [24] 2.55% | viability, T/C [30] 1.17% | viability, T/C [32] 10.7% | viability, T/C [33] 8.48% | viability, T/C [34] 14.2% | viability, T/C [35] 6.77% | viability, T/C [36] 1.03%
287 nM: IC50 (second compound 0.00316 µM)
< 31.6 nM: IC50 (second compound 0.316 µM) | IC50 (second compound 1 µM)

Cn1cnc2c(F)c(Nc3ccc(Br)cc3Cl)c(C(=O)NOCCO)cc21 + Cc1nc(NC(=O)N2CCCC2C(N)=O)sc1-c1ccnc(C(C)(C)C(F)(F)F)c1
inactive: viability, T/C (second compound 0.0316 µM, first compound 0.00949 µM) 88.1% | viability, T/C (second compound 0.0316 µM, first compound 0.03 µM) 84.8% | viability, T/C (second compound 0.0316 µM, first compound 0.0949 µM) 57% | viability, T/C (second compound 0.0316 µM, first compound 0.3 µM) 47.3% | viability, T/C (second compound 0.0316 µM, first compound 0.949 µM) 52% | viability, T/C (second compound 0.0316 µM, first compound 3 µM) 37.3% | viability, T/C (second compound 0.1 µM, first compound 0.00949 µM) 86.8% | viability, T/C (second compound 0.1 µM, first compound 0.03 µM) 68% | viability, T/C (second compound 0.1 µM, first compound 0.0949 µM) 39% | viability, T/C (second compound 0.1 µM, first compound 0.3 µM) 45.9% | viability, T/C (second compound 0.1 µM, first compound 0.949 µM) 28.4% | viability, T/C (second compound 0.1 µM, first compound 3 µM) 20.2% | viability, T/C (second compound 0.316 µM, first compound 0.00949 µM) 64.2% | viability, T/C (second compound 0.316 µM, first compound 0.03 µM) 63.5% | viability, T/C (second compound 0.316 µM, first compound 0.0949 µM) 35.1% | viability, T/C (second compound 0.316 µM, first compound 0.3 µM) 57.2% | viability, T/C (second compound 0.316 µM, first compound 0.949 µM) 30.3% | viability, T/C (second compound 0.316 µM, first compound 3 µM) 32.6% | viability, T/C (second compound 1 µM, first compound 0.00949 µM) 88.5% | viability, T/C (second compound 1 µM, first compound 0.03 µM) 39.5% | viability, T/C (second compound 1 µM, first compound 0.0949 µM) 36.1% | viability, T/C (second compound 1 µM, first compound 0.3 µM) 27.8% | viability, T/C (second compound 1 µM, first compound 0.949 µM) 29.1% | viability, T/C (second compound 1 µM, first compound 3 µM) 19.6% | viability, T/C (second compound 3.16 µM, first compound 0.00949 µM) 32.8% | viability, T/C (second compound 3.16 µM, first compound 0.03 µM) 34% | viability, T/C (second compound 3.16 µM, first compound 0.0949 µM) 24.2% | viability, T/C (second compound 3.16 µM, first compound 0.3 µM) 11.5% | viability, T/C (second compound 3.16 µM, first compound 0.949 µM) 15.7% | viability, T/C (second compound 10 µM, first compound 0.00949 µM) 22.3% | viability, T/C (second compound 10 µM, first compound 0.03 µM) 19.2% | viability, T/C (second compound 10 µM, first compound 0.0949 µM) 8.64%
87.6 nM: IC50 (second compound 0.1 µM)
< 9.49 nM: IC50 (second compound 3.16 µM) | IC50 (second compound 10 µM)
24.9 nM: IC50 (second compound 1 µM)
active: viability, T/C (second compound 3.16 µM, first compound 3 µM) 8.72% | viability, T/C (second compound 10 µM, first compound 0.3 µM) 5.65% | viability, T/C (second compound 10 µM, first compound 0.949 µM) 7.32% | viability, T/C (second compound 10 µM, first compound 3 µM) 7.06%
87.9 nM: IC50 (second compound 0.316 µM)
198 nM: IC50 (second compound 0.0316 µM)
